How the values were obtained:
[1] = system: NS-20Y (mouse neuroblastoma cells); experiment: Activity on NS-20Y cells: appearance of neurites; assay type: cell-based
Protocol: (§1) The effects of the compounds of this invention on neuroblastoma cells were examined by the following method.
(§2) Mouse neuro 2a cells in the logarithmic growth period in the Dulbecco's modified Eagle's medium DMEM, containing 100 units/ml of penicillin G sodium and 100 micrograms/ml of streptomycin sulfate]containing 10 % of FCS were seeded in a 48-well plate so that the number of cells was 1,000 cells/well, and cultured for one day in 0.25 ml of the culture fluid in each well in an incubator containing 5 % of carbon dioxide gas in air at 37° C. Then, a 4 % aqueous glutaraldehyde solution in the same amount as a medium (0.25 ml) was added, and the culture fluid was left to stand at room temperature for 2 hours to fix the cells. After washing with water, a 0.05 % aqueous solution of methylene blue was added to stain the cells Under a microscope, the number of cells containing outgrown neurites (cells having at least one neurite with a length of at least two times as large as the long diameter of the cell) was counted visually, and the proportion of these cells in the entire cells was calculated. The well was observed over 5 or more visual fields (at least 2 % of the entire surface area of the well) continuous to the left and right from a mark put at the center of the well, and more than 200 cells was counted. One drug compound was used in 6 different concentrations at most, and three runs were conducted for each concentrations.
Mouse neuroblastoma cells NS-20Y were similarly cultured in a dish coated with polyornithine, and the effects of the compounds were examined.

[2] = system: neuro-2a (mouse neuroblastoma cells); experiment: Action on neuro-2a: proportion of cells containing outgrown neurites; assay type: cell-based; details: mean ± S.D.
Protocol: as §1, §2

CN(C)CCN(C(=O)c1ccccc1)c1ccnc(N2CCC(c3ccccc3)CC2)n1 [Compound 200]
Number of cells in which neurites appeared/total number of cells ([1]; 24 hours, 0.02 mM): 4/50 | Number of cells in which neurites appeared/total number of cells ([1]; 48 hours, 0.02 mM): 2/50 | Number of cells having neurites with a length at least two times the diameter of each cell/total number of cells ([2]; 0.01 mM): 4.2 ± 1.6% | Number of cells having neurites with a length at least two times the diameter of each cell/total number of cells ([2]; 0.03 mM): 7.6 ± 1.6%

CCOC(=O)c1cnc(NC(C)C)nc1CN(C)C [Compound 828]
Number of cells in which neurites appeared/total number of cells ([1]; 24 hours, 0.3 mM): 10/58 | Number of cells in which neurites appeared/total number of cells ([1]; 24 hours, 0.5 mM): 5/59 | Number of cells in which neurites appeared/total number of cells ([1]; 48 hours, 0.3 mM): 6/50 | Number of cells in which neurites appeared/total number of cells ([1]; 48 hours, 0.5 mM): 5/51 | Number of cells having neurites with a length at least two times the diameter of each cell/total number of cells ([2]; 0.3 mM): 7.3 ± 1.6% | Number of cells having neurites with a length at least two times the diameter of each cell/total number of cells ([2]; 1 mM): 6.1 ± 2.0%

CN(C(=O)c1ccccc1)c1ccnc(N2CCNCC2)n1 [Compound 344]
Number of cells in which neurites appeared/total number of cells ([1]; 24 hours, 0.2 mM): 3/51 | Number of cells in which neurites appeared/total number of cells ([1]; 48 hours, 0.5 mM): 2/49 | Number of cells having neurites with a length at least two times the diameter of each cell/total number of cells ([2]; 0.01 mM): 3.6 ± 0.7% | Number of cells having neurites with a length at least two times the diameter of each cell/total number of cells ([2]; 0.03 mM): 4.0 ± 1.7% | Number of cells having neurites with a length at least two times the diameter of each cell/total number of cells ([2]; 0.1 mM): 4.7 ± 1.8% | Number of cells having neurites with a length at least two times the diameter of each cell/total number of cells ([2]; 0.3 mM): 4.5 ± 2.1%

CCOC(=O)c1cnc(N2CCCCC2)nc1CNC [Compound 812]
Number of cells in which neurites appeared/total number of cells ([1]; 24 hours, 0.5 mM): 9/50 | Number of cells in which neurites appeared/total number of cells ([1]; 24 hours, 1.0 mM): 11/50 | Number of cells in which neurites appeared/total number of cells ([1]; 48 hours, 0.3 mM): 9/50 | Number of cells in which neurites appeared/total number of cells ([1]; 48 hours, 0.5 mM): 5/51 | Number of cells having neurites with a length at least two times the diameter of each cell/total number of cells ([2]; 0.1 mM): 3.5 ± 0.5% | Number of cells having neurites with a length at least two times the diameter of each cell/total number of cells ([2]; 0.3 mM): 3.4 ± 0.5%

CN(C(=O)c1ccccc1)c1nc(N2CCC(c3ccccc3)CC2)ncc1F [Compound 432]
Number of cells in which neurites appeared/total number of cells ([1]; 24 hours, 0.02 mM): 7/50 | Number of cells in which neurites appeared/total number of cells ([1]; 24 hours, 0.4 mM): 7/50 | Number of cells in which neurites appeared/total number of cells ([1]; 48 hours, 0.4 mM): 4/50 | Number of cells having neurites with a length at least two times the diameter of each cell/total number of cells ([2]; 0.1 mM): 2.9 ± 1.0% | Number of cells having neurites with a length at least two times the diameter of each cell/total number of cells ([2]; 0.3 mM): 3.6 ± 1.7%

CNc1nc(N2CCCCC2)ncc1C [Compound 1094]
Number of cells in which neurites appeared/total number of cells ([1]; 24 hours, 0.1 mM): 4/54 | Number of cells in which neurites appeared/total number of cells ([1]; 24 hours, 0.4 mM): 7/48 | Number of cells in which neurites appeared/total number of cells ([1]; 48 hours, concentration printed "0. mM"): 2/50 | Number of cells having neurites with a length at least two times the diameter of each cell/total number of cells ([2]; 0.1 mM): 5.4 ± 1.9% | Number of cells having neurites with a length at least two times the diameter of each cell/total number of cells ([2]; 0.3 mM): 16.9 ± 1.2% | Number of cells having neurites with a length at least two times the diameter of each cell/total number of cells ([2]; 1 mM): 10.9 ± 1.1%

CNc1ccnc(N2CCC(c3ccccc3)CC2)n1.O=C(O)/C=C\C(=O)O [Compound 1026, 4-Methylamino-2-(4-phenylpiperidino)pyrimidine maleate]
Number of cells in which neurites appeared/total number of cells ([1]; 24 hours, 0.02 mM): 4/50 | Number of cells in which neurites appeared/total number of cells ([1]; 24 hours, 0.1 mM): 31/50 | Number of cells in which neurites appeared/total number of cells ([1]; 48 hours, 0.02 mM): 2/50 | Number of cells having neurites with a length at least two times the diameter of each cell/total number of cells ([2]; 0.03 mM): 3.5 ± 0.5% | Number of cells having neurites with a length at least two times the diameter of each cell/total number of cells ([2]; 0.1 mM): 5.6 ± 2.2%

CN(C(=O)C(C)(C)C)c1ccnc(N2CCC(c3ccccc3)CC2)n1 [Compound 224]
Number of cells in which neurites appeared/total number of cells ([1]; 24 hours, 0.02 mM): 6/50 | Number of cells in which neurites appeared/total number of cells ([1]; 48 hours, 0.02 mM): 3/50 | Number of cells having neurites with a length at least two times the diameter of each cell/total number of cells ([2]; 0.03 mM): 4.6 ± 1.7% | Number of cells having neurites with a length at least two times the diameter of each cell/total number of cells ([2]; 0.1 mM): 5.5 ± 1.5%

CC(=O)N(C)c1nc(N2CCC(c3ccccc3)CC2)ncc1C [Compound 416]
Number of cells in which neurites appeared/total number of cells ([1]; 24 hours, 0.1 mM): 7/50 | Number of cells in which neurites appeared/total number of cells ([1]; 24 hours, 0.4 mM): 11/50 | Number of cells in which neurites appeared/total number of cells ([1]; 48 hours, 0.1 mM): 2/50 | Number of cells having neurites with a length at least two times the diameter of each cell/total number of cells ([2]; 0.1 mM): 13.2 ± 1.3% | Number of cells having neurites with a length at least two times the diameter of each cell/total number of cells ([2]; 0.3 mM): 10.8 ± 1.5%

CNc1cc(C)nc(N2CCCCC2)n1 [Compound 1086]
Number of cells in which neurites appeared/total number of cells ([1]; 24 hours, 0.4 mM): 4/50 | Number of cells in which neurites appeared/total number of cells ([1]; 48 hours, 0.02 mM): 2/50 | Number of cells having neurites with a length at least two times the diameter of each cell/total number of cells ([2]; 0.03 mM): 1.9 ± 1.8% | Number of cells having neurites with a length at least two times the diameter of each cell/total number of cells ([2]; 0.1 mM): 3.1 ± 1.3% | Number of cells having neurites with a length at least two times the diameter of each cell/total number of cells ([2]; 0.3 mM): 8.7 ± 0.8% | Number of cells having neurites with a length at least two times the diameter of each cell/total number of cells ([2]; 1 mM): 17.4 ± 1.1%

Cc1ccc(C(c2ccccc2)N2CCN(c3ncc4c(n3)N(C)C(=O)C4)CC2)cc1.Cc1ccc(S(=O)(=O)O)cc1 (stereo not drawn) [Compound 3152, 2-(4-(α(4-methylphenyl)benzyl)piperazino)-5,6-dihydro-7-methyl-6-oxo(7H)pyrrolo[2,3-d)pyrimidine p-toluenesulfonate]
Number of cells having neurites with a length at least two times the diameter of each cell/total number of cells ([2]; 0.03 mM): 11.4 ± 3.1% | Number of cells having neurites with a length at least two times the diameter of each cell/total number of cells ([2]; 0.1 mM): 6.8 ± 4.2%

CCCCNC1CCN(c2nccc(N(C)C(=O)c3ccccc3)n2)CC1 [Compound 2260]
Number of cells having neurites with a length at least two times the diameter of each cell/total number of cells ([2]; 0.03 mM): 2.2 ± 0.3% | Number of cells having neurites with a length at least two times the diameter of each cell/total number of cells ([2]; 0.1 mM): 2.3 ± 0.5%

Cc1ccc(C(=O)N(C)c2ccnc(N3CCC(c4ccccc4)CC3)n2)cc1 [Compound 171-3]
Number of cells having neurites with a length at least two times the diameter of each cell/total number of cells ([2]; 0.1 mM): 28.8 ± 3.1% | Number of cells having neurites with a length at least two times the diameter of each cell/total number of cells ([2]; 0.3 mM): 19.5 ± 7.0%

CN(C)C(=O)N(C)c1ccnc(N2CCC(c3ccccc3)CC2)n1 [Compound 2294]
Number of cells having neurites with a length at least two times the diameter of each cell/total number of cells ([2]; 0.03 mM): 3.7 ± 0.9% | Number of cells having neurites with a length at least two times the diameter of each cell/total number of cells ([2]; 0.1 mM): 8.1 ± 1.6%

CN(C(=O)c1ccccc1)c1ccnc(N2CCC(N(C)C)CC2)n1 [Compound 2148]
Number of cells having neurites with a length at least two times the diameter of each cell/total number of cells ([2]; 0.03 mM): 4.5 ± 1.3% | Number of cells having neurites with a length at least two times the diameter of each cell/total number of cells ([2]; 0.1 mM): 4.2 ± 1.2%

CN(C(=O)c1ccccc1)c1ccnc(N2CCC(C(=O)c3ccccc3)CC2)n1 [Compound 306]
Number of cells having neurites with a length at least two times the diameter of each cell/total number of cells ([2]; 0.03 mM): 7.7 ± 0.5% | Number of cells having neurites with a length at least two times the diameter of each cell/total number of cells ([2]; 0.1 mM): 2.8 ± 0.8%

CNc1nccc(N2CCc3ccccc3C2)n1 [Compound 1130]
Number of cells having neurites with a length at least two times the diameter of each cell/total number of cells ([2]; 0.03 mM): 1.8 ± 0.5% | Number of cells having neurites with a length at least two times the diameter of each cell/total number of cells ([2]; 0.1 mM): 2.0 ± 0.3%

CN(C(=O)c1ccccc1)c1nccc(N2CCC(Cc3ccccc3)CC2)n1 [Compound 692]
Number of cells having neurites with a length at least two times the diameter of each cell/total number of cells ([2]; 0.03 mM): 5.8 ± 0.9% | Number of cells having neurites with a length at least two times the diameter of each cell/total number of cells ([2]; 0.1 mM): 11.1 ± 2.9%

CNc1nc(N2CCCc3ccccc32)ncc1C [Compound 1102]
Number of cells having neurites with a length at least two times the diameter of each cell/total number of cells ([2]; 0.1 mM): 11.9 ± 0.7% | Number of cells having neurites with a length at least two times the diameter of each cell/total number of cells ([2]; 0.3 mM): 10.1 ± 3.0%

CCN(C(=O)c1ccccc1)c1nccc(N2CCC(c3ccccc3)CC2)n1 [Compound 636]
Number of cells having neurites with a length at least two times the diameter of each cell/total number of cells ([2]; 0.03 mM): 12.1 ± 3.4% | Number of cells having neurites with a length at least two times the diameter of each cell/total number of cells ([2]; 0.1 mM): 8.9 ± 5.2%

CNc1ccnc(N2CCc3ccccc3C2)n1 [Compound 1038]
Number of cells having neurites with a length at least two times the diameter of each cell/total number of cells ([2]; 0.03 mM): 2.2 ± 0.4% | Number of cells having neurites with a length at least two times the diameter of each cell/total number of cells ([2]; 0.1 mM): 2.9 ± 0.3%

CN(C(=O)c1ccccc1)c1ccnc(N2CCC(c3ccc([N+](=O)[O-])cc3)CC2)n1 [Compound 2076]
Number of cells having neurites with a length at least two times the diameter of each cell/total number of cells ([2]; 0.01 mM): 4.8 ± 1.4% | Number of cells having neurites with a length at least two times the diameter of each cell/total number of cells ([2]; 0.03 mM): 1.9 ± 1.3%

CN(C(=O)c1ccc([N+](=O)[O-])cc1)c1nccc(N2CCC(c3ccccc3)CC2)n1 [Compound 676]
Number of cells having neurites with a length at least two times the diameter of each cell/total number of cells ([2]; 0.3 mM): 6.0 ± 1.1% | Number of cells having neurites with a length at least two times the diameter of each cell/total number of cells ([2]; 1 mM): 4.2 ± 2.1%
